These results are taken from ChEMBL document CHEMBL1150515, “Synthesis and structure-activity relationships of novel THF 1-methylcarbapenems II” (1997).

Where only a bound is given, the exact number is not on record here.

The MIC is the smallest concentration in the dilution series that meets the test's criterion for growth inhibition.

Assay [1] concerns the target T1, Dipeptidase 1 (Sus scrofa) (UniProt P22412).
T1 sequence (whole entry): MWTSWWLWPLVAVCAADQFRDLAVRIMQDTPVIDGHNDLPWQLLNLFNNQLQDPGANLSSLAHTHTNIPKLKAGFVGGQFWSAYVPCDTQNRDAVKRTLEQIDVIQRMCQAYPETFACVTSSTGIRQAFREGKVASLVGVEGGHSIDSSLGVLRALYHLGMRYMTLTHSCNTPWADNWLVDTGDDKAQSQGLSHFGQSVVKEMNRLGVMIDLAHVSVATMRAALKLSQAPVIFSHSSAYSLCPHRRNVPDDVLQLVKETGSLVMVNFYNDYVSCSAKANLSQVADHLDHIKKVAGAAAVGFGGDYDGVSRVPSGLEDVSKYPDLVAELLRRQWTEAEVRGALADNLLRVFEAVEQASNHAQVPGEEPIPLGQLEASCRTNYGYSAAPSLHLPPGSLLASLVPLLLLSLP
Kind of assay: Relative hydrolysis to that of imipenem was determined by hog renal dehydropeptidase.

The nature of assay [2]: Antimicrobial activity against Morganella morganii (GC 2213). The format is functional.
In assay [3] the test system is Staphylococcus aureus. Kind of assay: Antimicrobial activity against methicillin - resistant Staphylococcus aureus (GC 2220). The format is functional.
Assay [4] concerns Escherichia coli. Kind of assay: Antimicrobial activity against Escherichia coli (GC 2205). The assay is classed as functional.
Assay [5] deals with Pseudomonas aeruginosa. Kind of assay: Antimicrobial activity against Pseudomonas aeruginosa (GC 1544 OprD). The format is functional.
The nature of assay [6]: Antimicrobial activity against Enterobacter cloacae (GC 2209). The format is functional.
A short description of assay [7]: Antimicrobial activity against Enterococcus faecalis (GC 842). The format is functional.
Assay [8] has as its system Pseudomonas aeruginosa. Briefly: Antimicrobial activity against Pseudomonas aeruginosa (ATCC 27853). The assay is classed as functional.
Assay [9] can be described thus: Antimicrobial activity against Xanthomonas maltophilia (GC 562). The format is functional. Particulars: Stenotrophomonas maltophilia.
The nature of assay [10]: Antimicrobial activity against Enterococcus faecium (GC 1182). The format is functional.
The test system of assay [11] is Escherichia coli. Kind of assay: Antimicrobial activity against Escherichia coli (GC 1792). The format is functional.
The test system of assay [12] is Staphylococcus aureus. Kind of assay: Antimicrobial activity against Staphylococcus aureus (ATCC 29213). The assay is classed as functional.
Assay [13] deals with Acinetobacter calcoaceticus. Kind of assay: Antimicrobial activity against Acinetobacter calcoaceticus (GC 756). The format is functional.
The nature of assay [14]: Antimicrobial activity against Citrobacter freundii (GC 2211). The format is functional.
Assay [15] has as its system Escherichia coli. Briefly: Antimicrobial activity against Escherichia coli (ATCC 25922). The format is functional.

Molecule `CCN1CCN(C(=O)NCC2CC(SC3=C(C(=O)[O-])N4C(=O)[C@H]([C@@H](C)O)[C@H]4[C@H]3C)CO2)C(=O)C1=O.[Na+]` (stereo not given in full) showed a Relative hydrolysis in assay [1] of 13. The MIC in assay [2] was found to be 16 µg/mL; with Staphylococcus aureus [3], 32 µg/mL; with Escherichia coli [4] it was 0.25 µg/mL; against Pseudomonas aeruginosa [5], 128 µg/mL; in assay [6] it was 8 µg/mL; in assay [7], 16 µg/mL. Moreover, the minimum inhibitory concentration (MIC) against Pseudomonas aeruginosa [8] is greater than 128 µg/mL; in assay [9] it was greater than 128 µg/mL; in assay [10] it was greater than 128 µg/mL; with Escherichia coli [11], 4 µg/mL; in the assay on Staphylococcus aureus [12] it was 0.5 µg/mL; in [13] it was 128 µg/mL. Further, the values for the minimal inhibitory concentration (MIC) (in [14]; with Escherichia coli [15]) were 32 µg/mL and 2 µg/mL, respectively.
For `C[C@@H](O)[C@H]1C(=O)N2C(C(=O)[O-])=C(S[C@@H]3CCO[C@@H]3C/N=C\N)[C@H](C)[C@H]12.[Na+]`, the Relative hydrolysis in assay [1] stood at 18. Further, the MIC was 1 µg/mL in assay [2]; 4 µg/mL with Staphylococcus aureus [3]; 0.12 µg/mL against Escherichia coli [4]; 32 µg/mL in the assay on Pseudomonas aeruginosa [5]; no more than 0.06 µg/mL in assay [6]; 2 µg/mL in assay [7]. The MIC with Pseudomonas aeruginosa [8] is 16 µg/mL; in assay [9] it was greater than 128 µg/mL; in assay [10], greater than 128 µg/mL; against Escherichia coli [11], no more than 0.06 µg/mL; against Staphylococcus aureus [12], no more than 0.06 µg/mL; in assay [13], 8 µg/mL. For the same molecule, the MIC in [14] is 0.5 µg/mL; in the assay with Escherichia coli [15] it was no more than 0.06 µg/mL.
`CC(=O)NC[C@H]1OCC[C@H]1SC1=C(C(=O)[O-])N2C(=O)[C@H]([C@@H](C)O)[C@H]2[C@H]1C.[Na+]` registered a Relative hydrolysis in assay [1] of 4. For the same molecule, the MIC is 0.5 µg/mL in assay [2]; 16 µg/mL with Staphylococcus aureus [3]; no more than 0.06 µg/mL with Escherichia coli [4]; greater than 128 µg/mL against Pseudomonas aeruginosa [5]; 0.5 µg/mL in assay [6]; 8 µg/mL in assay [7]. Also, the MIC in the assay on Pseudomonas aeruginosa [8] is 128 µg/mL; in assay [9], greater than 128 µg/mL; in assay [10] it was greater than 128 µg/mL; in the assay with Escherichia coli [11], 0.12 µg/mL; with Staphylococcus aureus [12], 0.12 µg/mL; in assay [13], 16 µg/mL. The results for the MIC (in assay [14]; against Escherichia coli [15]) were 2 µg/mL and no more than 0.06 µg/mL, respectively.
Regarding `C[C@@H](O)[C@H]1C(=O)N2C(C(=O)[O-])=C(S[C@@H]3CCO[C@@H]3CN(C)C)[C@H](C)[C@H]12.[Na+]`, the Relative hydrolysis in [1] was found to be 7.5. For the same molecule, the MIC in assay [2] was 0.5 µg/mL; against Staphylococcus aureus [3], 4 µg/mL; with Escherichia coli [4], 0.06 µg/mL; in the assay with Pseudomonas aeruginosa [5], 32 µg/mL; in assay [6] it was no more than 0.12 µg/mL; in [7] it was 1 µg/mL. Further, the MIC against Pseudomonas aeruginosa [8] was 16 µg/mL; in assay [9], greater than 128 µg/mL; in assay [10], 64 µg/mL; against Escherichia coli [11] it was 0.06 µg/mL; against Staphylococcus aureus [12], 0.06 µg/mL; in assay [13], 4 µg/mL. The MIC in [14] amounted to 0.25 µg/mL; in the assay with Escherichia coli [15], 0.03 µg/mL.
Regarding `C[C@@H](N)C(=O)NC[C@H]1OCC[C@H]1SC1=C(C(=O)[O-])N2C(=O)[C@H]([C@@H](C)O)[C@H]2[C@H]1C.[Na+]`, the Relative hydrolysis in assay [1] was 3. In addition, the MIC in [2] is 1 µg/mL; against Staphylococcus aureus [3], 8 µg/mL; in the assay with Escherichia coli [4], no more than 0.06 µg/mL; against Pseudomonas aeruginosa [5], 64 µg/mL; in assay [6] it was 0.25 µg/mL; in assay [7], 2 µg/mL. Also, the MIC against Pseudomonas aeruginosa [8] is 64 µg/mL; in assay [9] it was greater than 128 µg/mL; in assay [10], greater than 128 µg/mL; in the assay on Escherichia coli [11], 0.12 µg/mL; with Staphylococcus aureus [12], no more than 0.06 µg/mL; in assay [13], 8 µg/mL. Besides, the MIC in [14] was 1 µg/mL; in the assay on Escherichia coli [15], no more than 0.06 µg/mL.
As to `C[C@H](N)C(=O)N[C@@H](C)C(=O)NC[C@H]1OCC[C@H]1SC1=C(C(=O)[O-])N2C(=O)[C@H]([C@@H](C)O)[C@H]2[C@H]1C.[Na+]`, in assay [1], the Relative hydrolysis is 13. For the same molecule, the MIC in [2] is 2 µg/mL; in the assay on Staphylococcus aureus [3] it was 64 µg/mL; with Escherichia coli [4] it was 0.12 µg/mL; in the assay with Pseudomonas aeruginosa [5], greater than 128 µg/mL; in assay [6], 2 µg/mL; in assay [7] it was 4 µg/mL. The MIC in the assay on Pseudomonas aeruginosa [8] is 64 µg/mL; in [9], greater than 128 µg/mL; in [10], greater than 128 µg/mL; against Escherichia coli [11], no more than 0.06 µg/mL; with Staphylococcus aureus [12], 1 µg/mL; in assay [13], 32 µg/mL. For the same molecule, the MIC is 8 µg/mL in assay [14] and no more than 0.06 µg/mL in the assay with Escherichia coli [15].
